For data set [1] the following is noted: for stability of control sample (active only, no excipient): HPLC impurities.
The subject of another data set is chronic anal fissures. Particulars: cream containing 0.5% nifedipine for four weeks; cited from earlier work.

Counter-ions that a name gives are not always drawn. Like-named read-outs stand apart in the source and are kept apart here. Some results are limits rather than exact numbers.

As for `CCN(CC)CC(=O)Nc1c(C)cccc1C` [Lidocaine HCl, 2-(diethylamino)-N-(2,6-dimethylphenyl)acetamide;hydrochloride], the “stability of control sample (active only, no excipient)” value in data set [1] (T0, both temperatures (RT & 40° C.)) is “stable”; in data set [1] (T4 weeks, both temperatures (RT & 40° C.)), “stable”. For the same compound, in data set [1] (T0, both temperatures (RT & 40° C.), major = >5%), the “degradation in any excipient combinations” value is listed as “No major degradation”. For the same compound, the “degradation in DEC combinations” value in data set [1] (T4 weeks, Benzyl Alcohol and Oleyl alcohol combinations) is “Slight degradation”. The “major degradation in DEC combinations” value in data set [1] (T4 weeks, RT & 40° C., combinations of Transcutol, DMI, and PEG 400) is recorded as above 5%.

On to `COC(=O)C1=C(C)NC(C)=C(C(=O)OC)C1c1ccccc1[N+](=O)[O-]` [Nifedipine, dimethyl 2,6-dimethyl-4-(2-nitrophenyl)-1,4-dihydropyridine-3,5-dicarboxylate], for which, in the data set with chronic anal fissures, the patients experienced healing was 70%.

These data come from patent US20240156756A1 (Steel Therapeutics, Inc., priority 2021, published 2024).
